These are literature values, as cited in US6998112B2, “Sleep inducing toothpaste made with natural herbs and a natural hormone” (priority 2003, dated 2006).

For this series the following is noted: in vivo.

Consider Melatonin, for which the adverse effects result is “isolated reports of exacerbation of depression and fatigue”.
